Results on one compound are retold here after patent US5506102A (priority 1993, dated 1996).

This test concerns the target T1, PR-B (Homo sapiens, UniProt P06401).
T1 sequence (P06401 1-933): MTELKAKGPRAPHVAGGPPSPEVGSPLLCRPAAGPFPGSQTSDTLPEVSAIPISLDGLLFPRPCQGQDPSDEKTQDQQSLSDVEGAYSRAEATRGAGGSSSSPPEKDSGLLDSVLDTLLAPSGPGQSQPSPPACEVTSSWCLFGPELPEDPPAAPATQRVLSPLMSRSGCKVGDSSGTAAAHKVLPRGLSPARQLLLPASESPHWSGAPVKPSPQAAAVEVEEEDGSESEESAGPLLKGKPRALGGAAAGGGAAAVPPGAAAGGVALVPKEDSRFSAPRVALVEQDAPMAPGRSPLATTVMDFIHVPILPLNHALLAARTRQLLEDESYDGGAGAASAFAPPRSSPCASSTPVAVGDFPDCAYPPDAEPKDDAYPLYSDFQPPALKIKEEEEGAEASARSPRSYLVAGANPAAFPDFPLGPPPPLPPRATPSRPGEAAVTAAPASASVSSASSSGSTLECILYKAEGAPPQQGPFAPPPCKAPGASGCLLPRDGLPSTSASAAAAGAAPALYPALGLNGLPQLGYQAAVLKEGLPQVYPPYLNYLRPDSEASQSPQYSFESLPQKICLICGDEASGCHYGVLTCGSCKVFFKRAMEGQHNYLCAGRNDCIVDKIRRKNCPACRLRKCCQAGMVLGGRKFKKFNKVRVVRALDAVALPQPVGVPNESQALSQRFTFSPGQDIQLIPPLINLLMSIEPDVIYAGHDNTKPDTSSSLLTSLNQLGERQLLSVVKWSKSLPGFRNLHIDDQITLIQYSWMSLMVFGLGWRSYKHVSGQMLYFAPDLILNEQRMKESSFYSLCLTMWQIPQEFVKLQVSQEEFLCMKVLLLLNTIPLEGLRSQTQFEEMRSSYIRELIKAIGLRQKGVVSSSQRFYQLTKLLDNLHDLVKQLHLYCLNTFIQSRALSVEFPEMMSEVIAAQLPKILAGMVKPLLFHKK
The experiment in a line: PR-B regulation of TAT promoter. The class given is cell-based. Further details: expressed in transfected cells; host or cells: CV-1, HepG2 (PRE2 tk-LUC); HeLa, also HepG2 and CV-1 (TAT promoter). To be noted: data not shown. The method, then: FIGS. 4A-4B are a series of graphs showing CV-1 ([…]) or HepG2 (FIG. 4B) cells that were transiently transfected with either […] of phPR-B or phPR-A alone, or phPR-B in the presence of increasing concentrations of phPR-A, together with 5 µg/ml of the PRE2 tk-LUC reporter and 5 µg/ml of pCH110 as an internal control. HeLa cells (FIG. 4C) were transfected with either phPR-B or phPR-A together with 5 µg/ml of the pTAT2950 reporter and 5 µg/ml of pCH110 as an internal control. […] The relative luciferase activity is calculated by dividing the normalized luciferase value at a given point by that obtained in the absence of transfected receptor or ligand. The data shown represent the mean +/- average deviation from the mean of triplicate estimations;
The 2.9 Kb fragment resulting from the digestion of the pTAT-CAT plasmid, and the 6.7 Kb fragment, containing the luciferase gene and the backbone resulting from MMTV-LUC digestion products, were ligated to create the plasmid TAT2950-LUC.
Cells were seeded in 12-well, 96-well or 10 cm tissue culture plates. […] 20 μg of DNA/ml of transfection buffer were used in each transfection reaction. […]

`CC(=O)[C@H]1CC[C@H]2[C@@H]3CCC4=CC(=O)CC[C@]4(C)[C@H]3CC[C@]12C` [progesterone]: the TAT promoter response entry (CV-1, PR-B) was “unresponsive to either receptor subtype”. Also, the “TAT promoter response to progesterone” value (HepG2, phPR-B) is on record as “responded to progesterone”.
